Where a name gives a salt, the structure may show the parent alone. Read-outs that look alike come from different tables or passages of the source.
Columns and labels:
[1] = tested on: individuals with a diagnosis of MCI with DepE scores >=2
Method: (§1) Next, the inventors conducted an investigator-initiated clinical trial (NCT02590874). […] Treatment duration was 4 months of duloxetine versus placebo. The initial dosage consisted of 30 mg/day duloxetine or placebo; after two weeks, dosage was increased to 60 mg/day. Dosage during the last two weeks of the 4-month study was reduced to 30 mg/day. Secondary endpoints of change in Repeatable Battery for the Assessment of Neuropsychological Status (RBANS) memory scores from baseline to study completion were analyzed. In this study, the inventors recruited n=16 participants with clinical diagnosis of amnestic MCI (single or multi-domain).

[2] = tested on: individuals with a diagnosis of MCI with DepE scores >=2; details: 4 months duloxetine 30-60 mg/day, n=16 participants in the trial
Method: Treatment duration was 4 months of duloxetine versus placebo. The initial dosage consisted of 30 mg/day duloxetine or placebo; after two weeks, dosage was increased to 60 mg/day. Dosage during the last two weeks of the 4-month study was reduced to 30 mg/day. […] In this study, the inventors recruited n=16 participants with clinical diagnosis of amnestic MCI (single or multi-domain). N=14 subjects enrolled were of Mexican American ethnicity.

[3] = tested on: individuals with a diagnosis of MCI with elevated DepE scores; details: treatment group, follow-up after 4 months
Method: as §1
Fasting blood samples were collected at baseline and follow-up. Several plasma biomarkers were assessed to determine neurodegeneration over treatment duration: Neurofilament light (NfL)(FIG. 6), Tau (FIG. 5), Aβ40 (FIG. 4) and Aβ42 (FIG. 3).

[4] = Baseline, amnestic MCI participants, duloxetine group before treatment
[5] = Follow-up, 4 months treatment, 30 mg/day then 60 mg/day, last two weeks 30 mg/day, *p < .05

Structure (SMILES): CNCC[C@H](Oc1cccc2ccccc12)c1cccs1 [Duloxetine, N-methyl-γ-(1-naphthalenyloxy)-2-thiopropanamine hydrochloride]
- RBANS Delayed Memory [1, 4]: 76.63(11.01)
- RBANS Immediate Memory [1, 4]: 74.62(11.17)
- RBANS Total [1, 4]: 72.37(5.12)
- RBANS Delayed Memory [1, 5]: 91.50(6.98)*
- RBANS Immediate Memory [1, 5]: 88.75(11.43)*
- RBANS Total [1, 5]: 80.37(5.31)*
- effect on memory abilities ([1]; MCI patients elevated in the depressive endophenotype, summary statement of the clinical trial): significant benefit
- change in RBANS Delayed Memory scores over treatment duration ([1]; treatment group, 4 months, no significant change in the placebo group (p<0.05), FIG. 2): significant improvement
- Serious Adverse Effects (SAEs) [2]: no Serious Adverse Effects (SAEs) were identified
- markers of neurodegeneration (NfL, Tau, Aβ40, Aβ42) at follow-up ([3]; MCI cases with elevated DepE scores): primarily stable
- plasma Aβ42, baseline versus follow-up ([3]; placebo group showed significant increase, FIG. 3): no significant differences
- plasma Aβ40, baseline versus follow-up ([3]; placebo group showed significant increase, FIG. 4): no significant differences

From patent US20220202771A1, “Antidepressants for the Treatment or Prevention of Memory Loss and/or Cognitive Decline or Dysfunction in Aging” (UNIVERSITY OF NORTH TEXAS HEALTH SCIENCE CENTER AT FORT …, priority 2019, published 2022)
